# Laboratory results: ChEMBL document CHEMBL2029323, “The discovery and development of selective 3-fluoro-4-aryloxyallylamine inhibitors of the amine oxidase activity of semicarbazide-sensitive amine oxidase/vascular adhesion protein-1 (SSAO/VAP-1)” (Bioorg Med Chem Lett, 2012)
# Legend:
# [1] = biological target: T1, Amine oxidase [flavin-containing] A (Homo sapiens, UniProt P21397); test: Inhibition of human recombinant MAO-A assessed as H2O2 production by Resorufin/Amplex Red assay
# T1 sequence (P21397 whole entry): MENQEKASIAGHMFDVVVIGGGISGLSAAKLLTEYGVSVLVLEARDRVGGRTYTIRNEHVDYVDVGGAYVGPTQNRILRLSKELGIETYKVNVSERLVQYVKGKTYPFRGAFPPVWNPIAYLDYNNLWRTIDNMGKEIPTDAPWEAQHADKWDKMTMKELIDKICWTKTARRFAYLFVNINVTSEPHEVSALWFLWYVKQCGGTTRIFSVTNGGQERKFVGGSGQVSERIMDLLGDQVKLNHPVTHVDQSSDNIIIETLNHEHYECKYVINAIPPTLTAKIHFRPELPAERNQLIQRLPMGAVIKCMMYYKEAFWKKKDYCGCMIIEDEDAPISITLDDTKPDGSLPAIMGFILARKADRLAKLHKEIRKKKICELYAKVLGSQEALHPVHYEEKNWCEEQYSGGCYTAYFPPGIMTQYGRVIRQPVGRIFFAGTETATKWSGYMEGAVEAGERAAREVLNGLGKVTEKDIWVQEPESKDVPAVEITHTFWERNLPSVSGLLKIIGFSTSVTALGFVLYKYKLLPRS
# [2] = biological target: T2, Amine oxidase [copper-containing] 3 (Mus musculus, UniProt O70423); test: Inhibition of SSAO/VAP1 in mouse adipocytes measuring H2O2 production by Resorufin/Amplex Red assay; type: cell-based
# T2 sequence (O70423 whole entry): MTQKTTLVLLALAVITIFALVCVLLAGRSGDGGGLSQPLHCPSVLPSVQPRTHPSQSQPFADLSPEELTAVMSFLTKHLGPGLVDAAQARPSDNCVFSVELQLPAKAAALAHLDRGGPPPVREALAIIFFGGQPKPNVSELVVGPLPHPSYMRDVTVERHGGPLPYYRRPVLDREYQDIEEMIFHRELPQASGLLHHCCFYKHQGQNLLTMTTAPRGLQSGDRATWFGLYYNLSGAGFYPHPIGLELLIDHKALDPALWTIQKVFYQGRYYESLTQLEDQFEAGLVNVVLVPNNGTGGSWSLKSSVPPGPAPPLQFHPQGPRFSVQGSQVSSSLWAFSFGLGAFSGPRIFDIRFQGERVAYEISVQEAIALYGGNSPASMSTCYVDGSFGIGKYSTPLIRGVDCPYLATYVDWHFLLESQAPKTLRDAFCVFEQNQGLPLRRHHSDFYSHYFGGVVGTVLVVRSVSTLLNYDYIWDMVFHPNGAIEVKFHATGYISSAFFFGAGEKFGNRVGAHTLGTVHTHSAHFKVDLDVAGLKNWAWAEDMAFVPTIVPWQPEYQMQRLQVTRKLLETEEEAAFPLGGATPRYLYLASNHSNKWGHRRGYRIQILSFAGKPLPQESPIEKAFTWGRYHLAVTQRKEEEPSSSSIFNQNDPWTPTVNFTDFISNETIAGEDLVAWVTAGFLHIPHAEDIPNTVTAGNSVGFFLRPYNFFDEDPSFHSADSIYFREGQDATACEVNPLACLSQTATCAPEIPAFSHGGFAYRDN
# [3] = biological target: T3, Amine oxidase [flavin-containing] B (Homo sapiens, UniProt P27338); test: Inhibition of human recombinant MAO-B assessed as H2O2 production by Resorufin/Amplex Red assay
# T3 sequence (P27338 whole entry): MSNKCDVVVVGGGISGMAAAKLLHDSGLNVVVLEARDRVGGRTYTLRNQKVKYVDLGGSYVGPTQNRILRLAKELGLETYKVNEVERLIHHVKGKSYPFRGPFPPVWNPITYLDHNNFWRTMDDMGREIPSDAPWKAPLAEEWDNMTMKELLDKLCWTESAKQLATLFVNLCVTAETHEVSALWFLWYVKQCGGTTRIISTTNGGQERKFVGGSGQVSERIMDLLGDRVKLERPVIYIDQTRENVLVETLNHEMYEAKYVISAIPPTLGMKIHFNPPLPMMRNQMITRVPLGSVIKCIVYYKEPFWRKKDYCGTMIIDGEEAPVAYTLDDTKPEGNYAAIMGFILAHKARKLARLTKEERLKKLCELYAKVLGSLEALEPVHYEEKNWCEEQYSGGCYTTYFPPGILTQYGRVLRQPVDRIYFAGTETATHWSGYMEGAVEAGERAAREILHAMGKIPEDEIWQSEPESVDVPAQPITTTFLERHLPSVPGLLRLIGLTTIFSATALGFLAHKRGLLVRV
# [4] = biological target: recombinant human DAO (diamine oxidase) (Homo sapiens, UniProt P19801); test: Inhibition of human DAO measuring H2O2 production by Resorufin/Amplex Red assay
# [5] = biological target: T4, Amine oxidase [copper-containing] 3 (Homo sapiens, UniProt Q16853); test: Inhibition of human recombinant SSAO/VAP1 assessed as H2O2 production by Resorufin/Amplex Red assay
# T4 sequence (Q16853 whole entry): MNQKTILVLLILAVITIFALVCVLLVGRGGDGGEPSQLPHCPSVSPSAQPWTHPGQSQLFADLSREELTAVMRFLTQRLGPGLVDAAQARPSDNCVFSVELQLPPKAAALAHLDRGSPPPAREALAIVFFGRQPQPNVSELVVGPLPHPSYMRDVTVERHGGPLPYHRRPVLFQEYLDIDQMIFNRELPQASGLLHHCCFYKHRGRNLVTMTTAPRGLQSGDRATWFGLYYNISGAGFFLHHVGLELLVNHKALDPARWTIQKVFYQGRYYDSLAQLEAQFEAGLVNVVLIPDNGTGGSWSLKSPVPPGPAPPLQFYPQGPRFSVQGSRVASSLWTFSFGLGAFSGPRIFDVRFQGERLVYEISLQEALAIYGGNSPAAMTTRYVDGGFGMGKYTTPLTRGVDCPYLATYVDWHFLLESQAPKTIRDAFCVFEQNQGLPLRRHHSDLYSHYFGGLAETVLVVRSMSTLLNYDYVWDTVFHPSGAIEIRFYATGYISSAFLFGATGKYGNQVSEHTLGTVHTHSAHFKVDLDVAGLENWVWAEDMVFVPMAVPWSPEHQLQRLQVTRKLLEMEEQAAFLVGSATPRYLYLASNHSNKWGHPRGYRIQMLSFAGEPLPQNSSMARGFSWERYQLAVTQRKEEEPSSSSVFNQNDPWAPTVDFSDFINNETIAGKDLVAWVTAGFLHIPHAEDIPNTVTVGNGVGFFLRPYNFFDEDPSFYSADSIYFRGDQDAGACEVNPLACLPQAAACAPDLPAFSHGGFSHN
# [6] = biological target: T4, Amine oxidase [copper-containing] 3; test: Inhibition of human SSAO/VAP1 measuring H2O2 production by Kitz and Wilson plot analysis
# [7] = biological target: T5, Amine oxidase [copper-containing] 2 (Homo sapiens, UniProt O75106); test: Inhibition of human AOC2
# T5 sequence (O75106 whole entry): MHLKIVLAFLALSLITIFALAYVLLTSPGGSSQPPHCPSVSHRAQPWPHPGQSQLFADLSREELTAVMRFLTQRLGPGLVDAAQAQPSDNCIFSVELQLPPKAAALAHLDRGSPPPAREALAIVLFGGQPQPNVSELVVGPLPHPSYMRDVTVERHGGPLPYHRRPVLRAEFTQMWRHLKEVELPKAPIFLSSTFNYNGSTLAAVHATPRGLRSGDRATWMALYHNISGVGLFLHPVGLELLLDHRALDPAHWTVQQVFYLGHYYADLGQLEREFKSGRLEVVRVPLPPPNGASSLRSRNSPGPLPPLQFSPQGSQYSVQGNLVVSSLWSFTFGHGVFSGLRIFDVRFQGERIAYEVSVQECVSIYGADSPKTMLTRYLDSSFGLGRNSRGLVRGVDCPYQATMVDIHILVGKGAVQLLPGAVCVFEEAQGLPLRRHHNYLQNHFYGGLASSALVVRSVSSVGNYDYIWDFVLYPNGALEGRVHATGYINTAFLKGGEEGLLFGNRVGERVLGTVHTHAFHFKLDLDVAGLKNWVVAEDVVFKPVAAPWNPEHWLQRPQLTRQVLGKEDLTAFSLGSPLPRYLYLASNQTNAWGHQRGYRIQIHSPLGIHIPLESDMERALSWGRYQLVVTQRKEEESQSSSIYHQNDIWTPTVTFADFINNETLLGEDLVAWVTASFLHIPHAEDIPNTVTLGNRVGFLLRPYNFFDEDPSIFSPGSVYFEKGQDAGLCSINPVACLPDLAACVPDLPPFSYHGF
# [8] = Half life in po dosed rat; type: ADME, organism-based; settings: in vivo
# Salmonella typhimurium = test: Mutagenic activity in Salmonella typhimurium by Ames test; type: toxicity, organism-based; settings: salmonella enterica subsp. enterica serovar typhimurium
# [9] = Inhibition of CYP450; type: ADME
# Rattus norvegicus = test: Inhibition of SSAO/VAP1 in po dosed rat gonadal adipose tissue after 6 hrs; type: functional, organism-based
# [10] = Oral bioavailability in rat; type: ADME, organism-based; settings: in vivo
# Mus musculus = test: Inhibition of SSAO/VAP1 in po dosed mouse gonadal adipose tissue after 6 hrs; type: functional, organism-based
SMILES,IC50 [1],IC50 [3],IC50 [5],also measured
NC/C=C(/F)COc1ccc([N+](=O)[O-])cc1,–,10 nM,70 nM,–
NC/C=C(/F)COc1ccc(C(=O)NC2CCCC2)cc1,> 30000 nM,1640 nM,20 nM,IC50 [2]: 530 nM; IC50 [4]: > 30000 nM
CN(Cc1ccccc1)C(=O)c1ccc(OC/C(F)=C\CN)cc1,–,2210 nM,260 nM,–
CC(C)(C)c1ccc(OC/C(F)=C\CN)cc1,> 30000 nM,6400 nM,210 nM,–
CSc1ccc(OC/C(F)=C\CN)cc1,–,160 nM,20 nM,–
NC/C(=C/F)CCc1ccc(F)cc1 [MOFEGILINE],1780 nM,10 nM,20 nM,IC50 [2]: 10 nM; IC50 [4]: > 10000 nM; Ki [6]: 1610 nM
NCC=CCOc1ccccc1 [listing 1 of 2 here],–,–,> 100000 nM,–
NCC=CCOc1ccccc1 [listing 2 of 2 here],–,–,82000 nM,–
NC/C=C(/F)COc1ccc(OC(F)(F)F)cc1,–,70 nM,180 nM,–
NC/C=C(/F)COc1ccc(C(=O)NCc2ccccc2)cc1,–,620 nM,80 nM,–
NC/C=C(/F)COc1ccc(C(F)(F)F)cc1,–,130 nM,40 nM,–
NC/C=C(/F)COc1ccc(C(=O)NC2CCCCC2)cc1,> 30000 nM,1120 nM,10 nM,IC50 [7]: > 10000 nM; IC50 [2]: 150 nM; half-life [8]: 1.62 h; Activity (Salmonella typhimurium): Non-toxic; IC50 [4]: 26100 nM; inhibition (INH) [9]: Not Active; EC50 (Rattus norvegicus): 10 mg/kg; Ki [6]: 1640 nM; bioavailability [10]: 62%; EC50 (Mus musculus): 10 mg/kg

# Continued by falling IC50 [5], values first:
IC50 [1],IC50 [3],IC50 [5],SMILES,also measured
–,–,20000 nM,NC/C=C(\F)COc1ccccc1,–
> 30000 nM,> 30000 nM,1070 nM,NC/C=C(/F)COc1ccc(C(N)=O)cc1,–
–,19000 nM,370 nM,CN(C)C(=O)c1ccc(OC/C(F)=C\CN)cc1,–
> 30000 nM,180 nM,290 nM,NC/C=C(/F)COc1ccccc1,–
–,30 nM,250 nM,NC/C=C(/F)COc1cccc(Cl)c1,–
–,450 nM,240 nM,NC/C=C(/F)COc1ccc(Oc2ccccc2)cc1,–
–,90 nM,190 nM,NC/C=C(/F)COc1ccc(F)c(F)c1,–
–,310 nM,160 nM,COc1ccc(OC/C(F)=C\CN)cc1,–
> 10000 nM,30 nM,150 nM,NC/C=C(/F)COc1cccc(C(F)(F)F)c1,–
–,11000 nM,140 nM,NC/C=C(/F)COc1ccc(C(=O)N2CCCC2)cc1,–
> 30000 nM,6430 nM,40 nM,C[C@H](NC(=O)c1ccc(OC/C(F)=C\CN)cc1)c1ccccc1,IC50 [2]: 130 nM; IC50 [4]: 74100 nM
–,2980 nM,40 nM,CC(NC(=O)c1ccc(OC/C(F)=C\CN)cc1)c1ccccc1 (racemic),–
> 30000 nM,1610 nM,30 nM,C[C@@H](NC(=O)c1ccc(OC/C(F)=C\CN)cc1)c1ccccc1,IC50 [4]: 2460 nM
